Laboratory results from patent US20250320213A1, “Nitrogen-Containing Heterocyclic Compounds” (Pfizer Inc., priority 2024, published 2025).

Legend:
[1] = system: CCL17 secretion in peripheral human whole blood; test: Human Whole Blood (HWB) CCL17 TR-FRET Assay (IL-13 stimulated CCL17 secretion); assay type: cell-based; conditions: Homo sapiens, 48 h, human whole blood, 10 ng/mL IL13, 48 hours
In short: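 Compounds are titrated (11 points, 3-fold, duplicate) into fresh heparinized human whole blood and held 2 h at 37 °C before IL-13 challenge (10 ng/mL final). After 48 h at 37 °C, serum CCL17 is measured by TR-FRET sandwich assay and IC50 values are calculated.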

STAT6 = molecular target: T1, STAT6 (Homo sapiens, UniProt P42226); test: STAT6 Reporter Luciferase Assay (IL-13 stimulated HaCaT keratinocyte NanoLuc reporter cells); assay type: cell-based; conditions: IL-13 stimulated HaCaT STAT6 NanoLuc reporter cells; read-out: Reporter EC50
T1 construct: stably transfected HaCaT keratinocyte cell line, which expresses NanoLuc luciferase reporter gene under the transcriptional control of the STAT6 responsive promoter; endogenous in cells; host or cells: HaCaT keratinocyte reporter cell line (stably transfected with a NanoLuc reporter)
T1 sequence (P42226 1-847): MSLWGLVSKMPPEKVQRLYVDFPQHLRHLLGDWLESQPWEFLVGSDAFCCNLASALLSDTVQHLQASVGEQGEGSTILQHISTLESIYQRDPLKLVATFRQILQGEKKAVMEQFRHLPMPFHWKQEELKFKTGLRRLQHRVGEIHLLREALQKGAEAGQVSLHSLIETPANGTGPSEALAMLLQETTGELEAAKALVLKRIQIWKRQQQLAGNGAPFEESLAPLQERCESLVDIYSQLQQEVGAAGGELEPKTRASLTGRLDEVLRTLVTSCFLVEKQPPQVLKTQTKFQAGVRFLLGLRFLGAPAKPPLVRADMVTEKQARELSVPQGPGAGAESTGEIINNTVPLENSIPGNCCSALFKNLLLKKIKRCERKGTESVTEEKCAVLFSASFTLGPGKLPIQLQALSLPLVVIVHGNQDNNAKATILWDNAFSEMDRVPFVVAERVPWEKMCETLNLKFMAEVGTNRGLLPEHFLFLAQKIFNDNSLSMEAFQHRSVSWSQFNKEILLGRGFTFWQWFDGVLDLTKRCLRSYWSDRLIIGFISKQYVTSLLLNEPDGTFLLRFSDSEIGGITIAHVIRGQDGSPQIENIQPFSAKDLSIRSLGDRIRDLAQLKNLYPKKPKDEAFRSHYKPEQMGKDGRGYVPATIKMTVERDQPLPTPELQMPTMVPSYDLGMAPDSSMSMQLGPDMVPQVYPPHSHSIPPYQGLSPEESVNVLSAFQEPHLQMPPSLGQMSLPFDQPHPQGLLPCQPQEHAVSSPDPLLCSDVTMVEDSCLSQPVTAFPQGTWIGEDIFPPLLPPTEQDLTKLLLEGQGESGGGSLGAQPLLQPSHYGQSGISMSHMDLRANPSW
In short: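 HaCaT IL-13Ra2-promoter NanoLuc reporter; cpd 2 h 37 °C in DMEM/2% HI FBS; IL-13 0.12 nM final, 4 h; Nano-Glo luminescence.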

| Compound | IC50 [1] | EC50 (STAT6) |
| --- | --- | --- |
| CN[C@@H]1CCCN(C(=O)Nc2ccc(CNC(=O)c3nn(C(C)C)c4c3CN(c3ccc(C(=O)N(C)C)cc3)C[C@@H]4C)cc2F)C1 [Example 568, (S)-5-(4-(dimethylcarbamoyl)phenyl)-N-(3-fluoro-4-((R)-3-(methylamino)piperidine-1-carboxamido)benzyl)-1-isopropyl-7-methyl-4,5,6,7-tetrahydro-1H-pyrazolo[4,3-c]pyridine-3-carboxamide] | 13 nM | 2 nM |
| CN[C@H]1CCCN(C(=O)Nc2ccc(CNC(=O)c3nn(C(C)C)c4c3CN(c3ccc(C(=O)N(C)C)cc3)C[C@@H]4C)cc2F)C1 [Example 569, (S)-5-(4-(dimethylcarbamoyl)phenyl)-N-(3-fluoro-4-((S)-3-(methylamino)piperidine-1-carboxamido)benzyl)-1-isopropyl-7-methyl-4,5,6,7-tetrahydro-1H-pyrazolo[4,3-c]pyridine-3-carboxamide] | 20 nM | 4 nM |
| CN[C@H]1CCN(C(=O)Nc2ccc(CNC(=O)c3nn(C(C)C)c4c3CN(c3ccc(C(=O)N(C)C)cc3)C[C@@H]4C)cc2)C1 [Example 571, (S)-5-(4-(dimethylcarbamoyl)phenyl)-1-isopropyl-7-methyl-N-(4-((S)-3-(methylamino)pyrrolidine-1-carboxamido)benzyl)-4,5,6,7-tetrahydro-1H-pyrazolo[4,3-c]pyridine-3-carboxamide] | 20 nM | 4 nM |

Now from value to molecule:

| IC50 [1] | EC50 (STAT6) | Compound |
| --- | --- | --- |
| 13 nM | 1 nM | CC(C)n1nc(C(=O)NCc2ccc(NC(=O)N3CCCN(C)CC3)cc2)c2c1[C@@H](C)CN(c1ccc(C(=O)N(C)C)cc1)C2 [Example 567, (S)-5-(4-(Dimethylcarbamoyl)phenyl)-1-isopropyl-7-methyl-N-(4-(4-methyl-1,4-diazepane-1-carboxamido)benzyl)-4,5,6,7-tetrahydro-1H-pyrazolo[4,3-c]pyridine-3-carboxamide] |
| 27 nM | 3 nM | CC(C)n1nc(C(=O)NCc2ccc(NC(=O)N3CC[C@](C)(N)C3)cc2)c2c1[C@@H](C)CN(c1ccc(C(=O)N(C)C)cc1)C2 [Example 570, (S)-N-(4-((S)-3-amino-3-methylpyrrolidine-1-carboxamido)benzyl)-5-(4-(dimethylcarbamoyl)phenyl)-1-isopropyl-7-methyl-4,5,6,7-tetrahydro-1H-pyrazolo[4,3-c]pyridine-3-carboxamide] |
| 20 nM | 3 nM | CC(C)n1nc(C(=O)NCc2ccc(NC(=O)N3CC[C@@](C)(N)C3)cc2)c2c1[C@@H](C)CN(c1ccc(C(=O)N(C)C)cc1)C2 [Example 572, (S)-N-(4-((R)-3-amino-3-methylpyrrolidine-1-carboxamido)benzyl)-5-(4-(dimethylcarbamoyl)phenyl)-1-isopropyl-7-methyl-4,5,6,7-tetrahydro-1H-pyrazolo[4,3-c]pyridine-3-carboxamide] |
| 11 nM | 0.5 nM | CC(C)n1nc(C(=O)NCc2ccc(NC(=O)N3CCN4CCC[C@@H]4C3)cc2)c2c1[C@@H](C)CN(c1ccc(C(=O)N(C)C)cc1)C2 [Example 574, (S)-5-(4-(dimethylcarbamoyl)phenyl)-1-isopropyl-7-methyl-N-(4-((R)-octahydropyrrolo[1,2-a]pyrazine-2-carboxamido)benzyl)-4,5,6,7-tetrahydro-1H-pyrazolo[4,3-c]pyridine-3-carboxamide] |
| 10 nM | 1 nM | CC(C)n1nc(C(=O)NCc2ccc(NC(=O)N3CCN4CCC[C@H]4C3)cc2)c2c1[C@@H](C)CN(c1ccc(C(=O)N(C)C)cc1)C2 [Example 575, (S)-5-(4-(dimethylcarbamoyl)phenyl)-1-isopropyl-7-methyl-N-(4-((S)-octahydropyrrolo[1,2-a]pyrazine-2-carboxamido)benzyl)-4,5,6,7-tetrahydro-1H-pyrazolo[4,3-c]pyridine-3-carboxamide] |
